Laboratory results: patent US10227331B2 (priority 2015, dated 2019)

What was measured:
[1] = tested on: Klebsiella pneumoniae expressing VIM-1 (IHMA599644); assay type: cell-based; details: with imipenem 1 μg/ml; 95% inhibition of bacterial growth
In short: (§1)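 Clinical strains grown overnight on blood agar, then diluted 1:100 in 1.1× CAMHB and exposed to test compound with imipenem at 1 μg/ml. Incubation was 22–24 h at 35° C; growth was read by absorbance to find the compound concentration restoring imipenem susceptibility.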

[2] = tested on: Escherichia coli expressing NDM-1 (CLB30005, CLB30016); assay type: cell-based; details: with imipenem 1 μg/ml; 95% inhibition of bacterial growth
In short: as §1

[3] = tested on: Serratia marcescens expressing IMP-1 (CL5741); assay type: cell-based; details: with imipenem 1 μg/ml; 95% inhibition of bacterial growth
In short: as §1

NDM-1 = NDM-1 (Klebsiella pneumoniae, UniProt C7C422); assay: biochemical; assay type: biochemical; details: CCF2-FA substrate, 2 hours at 25° C; read-out: NDM-1 IC50
In short: (§2)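 Class B activity is measured in the presence of compound by fluorescence with CCF2-FA after a 2-hour incubation at 25° C. IC50 is taken from a 4-parameter fit of semi-logarithmic dose-response data.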

IMP-1 = IMP-1 (Serratia marcescens, UniProt P52699); assay: biochemical; assay type: biochemical; details: CCF2-FA substrate, 2 hours at 25° C; read-out: IMP-1 IC50
In short: as §2

VIM-1 = VIM-1 (Pseudomonas aeruginosa (strain ATCC 15692 / DSM 22644 / CIP 104116 / JCM 14847 / LMG 12228 / 1C / PRS 101 / PAO1), UniProt A0A0F7KYQ8); assay: biochemical; details: CCF2-FA substrate, 2 hours at 25° C
In short: as §2

[4] = tested on: P. aeruginosa expressing IMP-1, efflux− (MB9799); assay: Efflux: concentration of MBL inhibitor which restores susceptibility to imipenem; assay type: cell-based, Pseudomonas aeruginosa; details: imipenem at 2 μg/mL, in the presence of a class A, C, D serine β-lactamase inhibitor closely related to relebactam
Text: (§3) The strain background is Pseudomonas aeruginosa PAO1.

[5] = tested on: P. aeruginosa expressing IMP-1, efflux+ (MB9798); assay type: cell-based, Pseudomonas aeruginosa; details: for P. aeruginosa expressing IMP-1, efflux+ (MB9798) MITC95: imipenem at 2 μg/mL, in the presence of a class A, C, D serine β-lactamase inhibitor closely related to relebactam; for Efflux ratio: ratio MITC95 PA_9798/MITC95 PA_9799
Text: as §3

Chain of NDM-1 (C7C422 whole entry, looked up, species assumed): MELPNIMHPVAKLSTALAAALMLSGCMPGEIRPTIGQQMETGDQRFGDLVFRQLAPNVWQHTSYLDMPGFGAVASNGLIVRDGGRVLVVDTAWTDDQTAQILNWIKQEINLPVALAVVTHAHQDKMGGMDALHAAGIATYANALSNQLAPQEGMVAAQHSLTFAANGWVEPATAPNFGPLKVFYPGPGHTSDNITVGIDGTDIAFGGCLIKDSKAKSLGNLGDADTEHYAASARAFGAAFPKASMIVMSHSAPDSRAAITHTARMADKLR
Chain of IMP-1 (P52699 whole entry, looked up, species assumed): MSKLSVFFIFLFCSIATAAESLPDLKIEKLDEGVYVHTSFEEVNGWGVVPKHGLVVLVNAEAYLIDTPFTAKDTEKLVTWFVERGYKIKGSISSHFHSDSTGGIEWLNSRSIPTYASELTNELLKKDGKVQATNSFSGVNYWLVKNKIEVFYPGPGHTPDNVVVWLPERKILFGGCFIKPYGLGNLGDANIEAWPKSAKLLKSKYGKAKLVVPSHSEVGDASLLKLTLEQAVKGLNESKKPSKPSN

In the case of `Cc1ccc(-c2ccc(S(=O)(=O)C3CNC3)c(S(N)(=O)=O)c2-c2nn[nH]n2)c2nc(N)sc12` [Example 32, 3-(2-amino-7-methylbenzo[d]thiazol-4-yl)-6-(azetidin-3-ylsulfonyl)-2-(2H-tetrazol-5-yl)benzenesulfonamide], the “Klebsiella pneumoniae expressing VIM-1 (IHMA599644) MITC95” value [1] is reported as 1.563 µM, the “Escherichia coli expressing NDM-1 (CLB30016) MITC95” value [2] is reported as 0.3906 µM and the “Serratia marcescens expressing IMP-1 (CL5741) MITC95” value [3] is reported as 0.7813 µM. For the same compound, the IC50 (NDM-1) was 0.0331 nM, the IC50 (IMP-1) was 0.138 nM and the IC50 (VIM-1) was 0.106 nM. The “P. aeruginosa expressing IMP-1, efflux− (MB9799) MITC95” value [4] was 0.7813 µM, the “P. aeruginosa expressing IMP-1, efflux+ (MB9798) MITC95” value [5] was 1.563 µM and the Efflux ratio [5] was 2.00.
For `Cc1ccc(-c2ccc(S(=O)(=O)C3CNC3)c(S(N)(=O)=O)c2-c2nn[nH]n2)c2sc(N)nc12` [Example 33, 3-(2-amino-4-methylbenzo[d]thiazol-7-yl)-6-(azetidin-3-ylsulfonyl)-2-(2H-tetrazol-5-yl)benzenesulfonamide], the “Klebsiella pneumoniae expressing VIM-1 (IHMA599644) MITC95” value [1] was 3.125 µM, the “Escherichia coli expressing NDM-1 (CLB30016) MITC95” value [2] was 1.563 µM and the “Serratia marcescens expressing IMP-1 (CL5741) MITC95” value [3] was 1.563 µM. For the same compound, the IC50 (NDM-1) was 0.0239 nM, the IC50 (IMP-1) was 0.296 nM and the IC50 (VIM-1) was 0.12 nM. The “P. aeruginosa expressing IMP-1, efflux− (MB9799) MITC95” value [4] was 1.563 µM, the “P. aeruginosa expressing IMP-1, efflux+ (MB9798) MITC95” value [5] was 3.125 µM and the Efflux ratio [5] was 2.00.
In the case of `Nc1nc2c(-c3ccc(S(=O)(=O)C4CNC4)c(S(N)(=O)=O)c3-c3nn[nH]n3)ccc(C(F)(F)F)c2s1` [Example 34, 3-(2-amino-7-(trifluoromethyl)benzo[d]thiazol-4-yl)-6-(azetidin-3-ylsulfonyl)-2-(2H-tetrazol-5-yl)benzenesulfonamide], the “Klebsiella pneumoniae expressing VIM-1 (IHMA599644) MITC95” value [1] is reported as 1.563 µM, the “Escherichia coli expressing NDM-1 (CLB30016) MITC95” value [2] is reported as 0.7813 µM and the “Serratia marcescens expressing IMP-1 (CL5741) MITC95” value [3] is reported as 0.7813 µM. It also gave an IC50 (NDM-1) of 0.0713 nM, an IC50 (IMP-1) of 0.229 nM and an IC50 (VIM-1) of 0.175 nM. For the same compound, the “P. aeruginosa expressing IMP-1, efflux− (MB9799) MITC95” value [4] was 0.7813 µM, the “P. aeruginosa expressing IMP-1, efflux+ (MB9798) MITC95” value [5] was 6.25 µM and the Efflux ratio [5] was 8.00.
In the case of `Nc1cc2cccc(-c3ccc(S(=O)(=O)C4CNC4)c(S(N)(=O)=O)c3-c3nn[nH]n3)c2cn1` [Example 35, 3-(3-aminoisoquinolin-8-yl)-6-(azetidin-3-ylsulfonyl)-2-(2H-tetrazol-5-yl)benzenesulfonamide], the “Klebsiella pneumoniae expressing VIM-1 (IHMA599644) MITC95” value [1] is reported as 6.25 µM, the “Escherichia coli expressing NDM-1 (CLB30016) MITC95” value [2] is reported as 1.563 µM and the “Serratia marcescens expressing IMP-1 (CL5741) MITC95” value [3] is reported as 1.563 µM. For the same compound, the IC50 (NDM-1) was 0.0695 nM, the IC50 (IMP-1) was 0.503 nM and the IC50 (VIM-1) was 0.243 nM. For the same compound, the “P. aeruginosa expressing IMP-1, efflux− (MB9799) MITC95” value [4] was 1.563 µM, the “P. aeruginosa expressing IMP-1, efflux+ (MB9798) MITC95” value [5] was 1.563 µM and the Efflux ratio [5] was 1.00.
`Nc1ccc2cccc(-c3ccc(S(=O)(=O)C4CNC4)c(S(N)(=O)=O)c3-c3nn[nH]n3)c2n1` [Example 36, 3-(2-aminoquinolin-8-yl)-6-(azetidin-3-ylsulfonyl)-2-(2H-tetrazol-5-yl)benzenesulfonamide] was tested, and the “Klebsiella pneumoniae expressing VIM-1 (IHMA599644) MITC95” value [1] was 1.563 µM, the “Escherichia coli expressing NDM-1 (CLB30016) MITC95” value [2] was 3.125 µM and the “Serratia marcescens expressing IMP-1 (CL5741) MITC95” value [3] was 0.7813 µM. The IC50 (NDM-1) was 0.104 nM, the IC50 (IMP-1) was 0.357 nM and the IC50 (VIM-1) was 0.282 nM. For the same compound, the “P. aeruginosa expressing IMP-1, efflux− (MB9799) MITC95” value [4] was 0.7813 µM, the “P. aeruginosa expressing IMP-1, efflux+ (MB9798) MITC95” value [5] was 0.7813 µM and the Efflux ratio [5] was 1.00.
With `Nc1nc2c(-c3ccc(S(=O)(=O)C4CNC4)c(S(N)(=O)=O)c3-c3nn[nH]n3)cccc2c(=O)[nH]1` [Example 37, 3-(2-amino-4-oxo-3,4-dihydroquinazolin-8-yl)-6-(azetidin-3-ylsulfonyl)-2-(2H-tetrazol-5-yl)benzenesulfonamide] the “Klebsiella pneumoniae expressing VIM-1 (IHMA599644) MITC95” value [1] was 6.25 µM, the “Escherichia coli expressing NDM-1 (CLB30016) MITC95” value [2] was 25 µM and the “Serratia marcescens expressing IMP-1 (CL5741) MITC95” value [3] was 3.125 µM. For the same compound, the IC50 (NDM-1) was 0.081 nM, the IC50 (IMP-1) was 1.9 nM and the IC50 (VIM-1) was 0.348 nM. The “P. aeruginosa expressing IMP-1, efflux− (MB9799) MITC95” value [4] was 1.563 µM, the “P. aeruginosa expressing IMP-1, efflux+ (MB9798) MITC95” value [5] was 3.125 µM and the Efflux ratio [5] was 2.00.
`Nc1nc2c(-c3ccc(S(=O)(=O)C4CNC4)c(S(N)(=O)=O)c3-c3nn[nH]n3)ccc(C(=O)O)c2s1` [Example 38, 2-amino-4-(4-(azetidin-3-ylsulfonyl)-3-sulfamoyl-2-(2H-tetrazol-5-yl)phenyl)benzo[d]thiazole-7-carboxylic Acid] was tested, and the “Klebsiella pneumoniae expressing VIM-1 (IHMA599644) MITC95” value [1] was 25 µM, the “Escherichia coli expressing NDM-1 (CLB30016) MITC95” value [2] was 31.25 µM and the “Serratia marcescens expressing IMP-1 (CL5741) MITC95” value [3] was 12.5 µM. It also gave an IC50 (NDM-1) of 0.0286 nM, an IC50 (IMP-1) of 0.126 nM and an IC50 (VIM-1) of 0.341 nM. For the same compound, the “P. aeruginosa expressing IMP-1, efflux− (MB9799) MITC95” value [4] was 6.25 µM, the “P. aeruginosa expressing IMP-1, efflux+ (MB9798) MITC95” value [5] was 9.375 µM and the Efflux ratio [5] was 1.50.
In the case of `NC(=O)c1ccc(-c2ccc(S(=O)(=O)C3CNC3)c(S(N)(=O)=O)c2-c2nn[nH]n2)c2nc(N)sc12` [Example 39, 2-amino-4-(4-(azetidin-3-ylsulfonyl)-3-sulfamoyl-2-(2H-tetrazol-5-yl)phenyl)benzo[d]thiazole-7-carboxamide], the “Klebsiella pneumoniae expressing VIM-1 (IHMA599644) MITC95” value [1] is reported as 3.125 µM, the “Escherichia coli expressing NDM-1 (CLB30016) MITC95” value [2] is reported as 1.563 µM and the “Serratia marcescens expressing IMP-1 (CL5741) MITC95” value [3] is reported as 3.125 µM. For the same compound, the IC50 (NDM-1) was 0.0303 nM, the IC50 (IMP-1) was 0.276 nM and the IC50 (VIM-1) was 0.129 nM. The “P. aeruginosa expressing IMP-1, efflux− (MB9799) MITC95” value [4] was 1.563 µM, the “P. aeruginosa expressing IMP-1, efflux+ (MB9798) MITC95” value [5] was 0.7813 µM and the Efflux ratio [5] was 0.50.
With `Nc1nc2cc(-c3ccc(S(=O)(=O)C4CNC4)c(S(N)(=O)=O)c3-c3nn[nH]n3)ccc2[nH]1` [Example 40, 3-(2-amino-1H-benzo[d]imidazol-5-yl)-6-(azetidin-3-ylsulfonyl)-2-(2H-tetrazol-5-yl)benzenesulfonamide] the “Klebsiella pneumoniae expressing VIM-1 (IHMA599644) MITC95” value [1] was 1.375 µM, the “Escherichia coli expressing NDM-1 (CLB30016) MITC95” value [2] was 0.4453 µM and the “Serratia marcescens expressing IMP-1 (CL5741) MITC95” value [3] was 0.5573 µM. It also gave an IC50 (NDM-1) of 0.409 nM, an IC50 (IMP-1) of 1.99 nM and an IC50 (VIM-1) of 0.348 nM. The “P. aeruginosa expressing IMP-1, efflux− (MB9799) MITC95” value [4] was 0.5573 µM, the “P. aeruginosa expressing IMP-1, efflux+ (MB9798) MITC95” value [5] was 3.125 µM and the Efflux ratio [5] was 5.61.
For `Nc1nc2cccc(-c3ccc(S(=O)(=O)C4CCNCC4)c(S(N)(=O)=O)c3-c3nn[nH]n3)c2[nH]1` [Example 42, 3-(2-amino-3H-benzo[d]imidazol-4-yl)-6-(piperidin-4-ylsulfonyl)-2-(2H-tetrazol-5-yl)benzenesulfonamide], the “Klebsiella pneumoniae expressing VIM-1 (IHMA599644) MITC95” value [1] was 1.563 µM, the “Escherichia coli expressing NDM-1 (CLB30016) MITC95” value [2] was 0.5859 µM and the “Serratia marcescens expressing IMP-1 (CL5741) MITC95” value [3] was 1.563 µM. For the same compound, the IC50 (NDM-1) was 0.177 nM, the IC50 (IMP-1) was 1.19 nM and the IC50 (VIM-1) was 0.306 nM. The “P. aeruginosa expressing IMP-1, efflux− (MB9799) MITC95” value [4] was 0.7813 µM, the “P. aeruginosa expressing IMP-1, efflux+ (MB9798) MITC95” value [5] was 0.7813 µM and the Efflux ratio [5] was 1.00.
For `Nc1nc2c(-c3ccc(S(=O)(=O)C4CNC4)c(S(N)(=O)=O)c3-c3nn[nH]n3)cccc2[nH]1` [Example 43, 3-(2-amino-1H-benzo[d]imidazol-4-yl)-6-(azetidin-3-ylsulfonyl)-2-(2H-tetrazol-5-yl)benzenesulfonamide], the “Klebsiella pneumoniae expressing VIM-1 (IHMA599644) MITC95” value [1] was 1.151 µM, the “Escherichia coli expressing NDM-1 (CLB30016) MITC95” value [2] was 0.2902 µM and the “Serratia marcescens expressing IMP-1 (CL5741) MITC95” value [3] was 0.7982 µM. For the same compound, the IC50 (NDM-1) was 0.0835 nM, the IC50 (IMP-1) was 0.828 nM and the IC50 (VIM-1) was 0.258 nM. The “P. aeruginosa expressing IMP-1, efflux− (MB9799) MITC95” value [4] was 0.6406 µM, the “P. aeruginosa expressing IMP-1, efflux+ (MB9798) MITC95” value [5] was 0.6081 µM and the Efflux ratio [5] was 0.95.
